From ChEMBL document CHEMBL6103648, “AI-Driven Discovery of Highly Specific and Efficacious hCES2A Inhibitors for Ameliorating Irinotecan-Triggered Gut Toxicity” (J Med Chem, 2025)
Activity calls are given as the source filed them. The calls are words filed in the database; no cut-off is given here.

Columns and labels:
Mus musculus [1] = assay: Inhibition of irinotecan-triggered gut toxicity in C57BL/6J mouse bearing tumor cells assessed as decrease in serum UREA level at 25 to 50 mg/kg/day, po treated for 14 days; type: functional, organism-based; conditions: dose 25-50 mg/kg/day, time 14.0 day
Mus musculus [2] = assay: Inhibition of irinotecan-triggered gut toxicity in C57BL/6J mouse bearing tumor cells assessed as decrease in serum CREA level at 25 to 50 mg/kg/day, po treated for 14 days; type: functional, organism-based; conditions: dose 25-50 mg/kg/day, time 14.0 day
Cholinesterase = Cholinesterase (Homo sapiens, UniProt P06276); assay: Inhibition of human BuChE using BTCI as substrate incubated for 3 mins by Ellman's method
[3] = Permeability across apical to basal side in human Caco-2 cells assessed as cumulative penetration amount at 25 uM incubated for 120 mins by UPLC-MS/MS analysis; type: ADME, cell-based; conditions: caco-2, 2 h
Prothrombin = Prothrombin (Homo sapiens, UniProt P00734); assay: Inhibition of human Thrombin using Z-GGRAMC as substrate preincubated for 3 mins followed by substrate addition by fluorescence based assay
[4] = Apparent permeability across basal to apical side in human Caco-2 cells at 50 uM incubated for 120 mins by UPLC-MS/MS analysis; type: ADME, cell-based
[5] = Permeability across basal to apical side in human Caco-2 cells assessed as cumulative penetration amount at 50 uM incubated for 120 mins by UPLC-MS/MS analysis; type: ADME, cell-based; conditions: caco-2, 2 h
[6] = Sub-acute toxicity in C57BL/6J mouse assessed as change in AST level at 100 mg/kg/day, po treated for 14 days consecutively; type: organism-based; conditions: in vivo, 336 h, time 14 day
Caco-2 = assay: Cytotoxicity against human Caco-2 cells at 100 uM incubated for 24 hrs by CCK8 assay; type: toxicity, cell-based; conditions: caco-2, 24 h
[7] = molecular target: T1, Palmitoleoyl-protein carboxylesterase NOTUM (Homo sapiens, UniProt Q6P988); assay: Inhibition of human Notum using OPTS as substrate preincubated for 1 min followed by substrate addition by fluorescence based assay
T1 sequence (Q6P988 whole entry): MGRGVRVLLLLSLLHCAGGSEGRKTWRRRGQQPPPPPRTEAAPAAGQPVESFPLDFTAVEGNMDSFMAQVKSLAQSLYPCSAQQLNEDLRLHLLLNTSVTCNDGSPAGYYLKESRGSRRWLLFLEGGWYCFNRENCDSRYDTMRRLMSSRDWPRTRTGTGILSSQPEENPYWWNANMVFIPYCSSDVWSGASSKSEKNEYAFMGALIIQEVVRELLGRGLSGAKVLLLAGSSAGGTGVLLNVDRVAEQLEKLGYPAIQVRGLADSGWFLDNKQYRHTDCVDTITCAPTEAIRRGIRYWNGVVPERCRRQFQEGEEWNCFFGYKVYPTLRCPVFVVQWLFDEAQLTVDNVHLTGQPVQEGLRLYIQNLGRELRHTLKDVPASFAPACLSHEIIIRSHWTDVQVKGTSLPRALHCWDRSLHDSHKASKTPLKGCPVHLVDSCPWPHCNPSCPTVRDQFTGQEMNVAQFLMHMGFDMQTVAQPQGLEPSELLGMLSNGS

[8] = Sub-acute toxicity in C57BL/6J mouse assessed as body weight change at 100 mg/kg/day, po treated for 14 days consecutively; type: organism-based; conditions: in vivo, 336 h, time 14 day
[9] = Chemical stability in artificial gastrointestinal fluid at 10 uM measured upto 120 mins by UPLC-MS/MS analysis; type: physicochemical; conditions: 2 h
[10] = Efflux ratio of apparent permeability across basal to apical side over apical to basal side in human Caco-2 cells at 25 uM incubated for 120 mins by UPLC-MS/MS analysis; type: ADME, cell-based
Mus musculus [11] = assay: Inhibition of irinotecan-triggered gut toxicity in C57BL/6J mouse bearing tumor cells assessed as increase in ZO-1 level in colon tissue at 25 to 50 mg/kg/day, po treated for 14 days by immunofluorescence based analysis; type: functional, organism-based; conditions: dose 25-50 mg/kg/day, time 14.0 day
Cytochrome P450 2C19 = Cytochrome P450 2C19 (Homo sapiens, UniProt P33261); assay: Inhibition of CYP2C19 in human liver microsomes using omeprazole as substrate upto 10 uM; type: ADME, Microsome
[12] = Sub-acute toxicity in C57BL/6J mouse assessed as change in UREA level at 100 mg/kg/day, po treated for 14 days consecutively; type: organism-based; conditions: in vivo, 336 h, time 14 day
[13] = Sub-acute toxicity in C57BL/6J mouse assessed as abnormality in heart at 100 mg/kg/day, po treated for 14 days consecutively by H and E staining based analysis; type: organism-based; conditions: in vivo, 336 h, time 14 day
[14] = Apparent permeability across apical to basal side in human Caco-2 cells at 50 uM incubated for 120 mins by UPLC-MS/MS analysis; type: ADME, cell-based
Cytochrome P450 2E1 = Cytochrome P450 2E1 (Homo sapiens, UniProt P05181); assay: Inhibition of CYP2E1 in human liver microsomes using chlorzoxazone as substrate upto 10 uM; type: ADME, Microsome
[15] = Drug distribution in colon of C57BL/6J mouse at 100 mg/kg, po administered as single dose measured for 0.5 to 3 hrs by UHPLC-Q-Orbitrap HRMS analysis; type: ADME, organism-based; conditions: in vivo, time 0.5-3 hrs
Cytochrome P450 1A2 = molecular target: T2, Cytochrome P450 1A2 (Homo sapiens, UniProt P05177); assay: Inhibition of CYP1A2 in human liver microsomes using phenacetin as substrate upto 10 uM; type: ADME, Microsome
T2 sequence (P05177 whole entry): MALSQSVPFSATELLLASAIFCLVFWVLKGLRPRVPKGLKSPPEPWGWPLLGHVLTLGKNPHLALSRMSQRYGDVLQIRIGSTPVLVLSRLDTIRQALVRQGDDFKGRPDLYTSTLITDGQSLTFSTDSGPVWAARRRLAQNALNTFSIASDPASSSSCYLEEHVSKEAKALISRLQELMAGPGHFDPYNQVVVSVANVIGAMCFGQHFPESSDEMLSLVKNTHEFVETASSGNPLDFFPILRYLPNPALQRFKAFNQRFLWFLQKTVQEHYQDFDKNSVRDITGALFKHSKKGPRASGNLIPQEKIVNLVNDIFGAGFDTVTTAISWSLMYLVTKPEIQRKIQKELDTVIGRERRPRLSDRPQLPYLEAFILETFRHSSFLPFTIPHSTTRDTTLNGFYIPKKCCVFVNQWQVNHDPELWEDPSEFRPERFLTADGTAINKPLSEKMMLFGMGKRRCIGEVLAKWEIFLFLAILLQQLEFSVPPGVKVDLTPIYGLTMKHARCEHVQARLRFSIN

Cytochrome P450 2E1, sequence (P05181 whole entry): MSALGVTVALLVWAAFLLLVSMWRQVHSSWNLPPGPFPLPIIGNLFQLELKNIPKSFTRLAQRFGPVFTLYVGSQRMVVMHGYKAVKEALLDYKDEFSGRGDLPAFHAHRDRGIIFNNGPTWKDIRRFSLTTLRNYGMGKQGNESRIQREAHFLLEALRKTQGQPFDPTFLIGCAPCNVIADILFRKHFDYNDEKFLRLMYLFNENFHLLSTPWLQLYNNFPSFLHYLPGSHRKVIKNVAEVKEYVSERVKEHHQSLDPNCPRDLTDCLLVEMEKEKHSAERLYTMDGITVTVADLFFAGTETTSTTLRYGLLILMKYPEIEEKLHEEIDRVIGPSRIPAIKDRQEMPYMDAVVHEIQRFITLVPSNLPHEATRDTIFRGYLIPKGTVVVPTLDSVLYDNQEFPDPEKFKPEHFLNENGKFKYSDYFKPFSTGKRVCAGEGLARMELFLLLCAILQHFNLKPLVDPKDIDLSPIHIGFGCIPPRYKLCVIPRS
Cholinesterase, sequence (P06276 whole entry): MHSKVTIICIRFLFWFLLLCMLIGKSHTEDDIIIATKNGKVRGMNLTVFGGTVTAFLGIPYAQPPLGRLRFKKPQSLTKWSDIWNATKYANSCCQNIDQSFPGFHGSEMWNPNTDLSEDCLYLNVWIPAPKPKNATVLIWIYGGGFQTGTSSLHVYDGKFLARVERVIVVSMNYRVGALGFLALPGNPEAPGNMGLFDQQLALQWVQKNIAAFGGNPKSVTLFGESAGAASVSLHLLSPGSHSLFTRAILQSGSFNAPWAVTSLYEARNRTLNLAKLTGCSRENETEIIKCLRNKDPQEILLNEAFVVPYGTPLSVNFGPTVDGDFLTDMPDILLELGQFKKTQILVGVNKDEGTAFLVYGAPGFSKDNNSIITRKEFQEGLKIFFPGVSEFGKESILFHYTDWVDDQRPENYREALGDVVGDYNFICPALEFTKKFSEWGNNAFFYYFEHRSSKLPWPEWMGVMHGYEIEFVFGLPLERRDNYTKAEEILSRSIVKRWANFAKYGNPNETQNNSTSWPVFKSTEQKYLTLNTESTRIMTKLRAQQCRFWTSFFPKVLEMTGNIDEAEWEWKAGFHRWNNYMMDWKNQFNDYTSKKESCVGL
Cytochrome P450 2C19, sequence (P33261 whole entry): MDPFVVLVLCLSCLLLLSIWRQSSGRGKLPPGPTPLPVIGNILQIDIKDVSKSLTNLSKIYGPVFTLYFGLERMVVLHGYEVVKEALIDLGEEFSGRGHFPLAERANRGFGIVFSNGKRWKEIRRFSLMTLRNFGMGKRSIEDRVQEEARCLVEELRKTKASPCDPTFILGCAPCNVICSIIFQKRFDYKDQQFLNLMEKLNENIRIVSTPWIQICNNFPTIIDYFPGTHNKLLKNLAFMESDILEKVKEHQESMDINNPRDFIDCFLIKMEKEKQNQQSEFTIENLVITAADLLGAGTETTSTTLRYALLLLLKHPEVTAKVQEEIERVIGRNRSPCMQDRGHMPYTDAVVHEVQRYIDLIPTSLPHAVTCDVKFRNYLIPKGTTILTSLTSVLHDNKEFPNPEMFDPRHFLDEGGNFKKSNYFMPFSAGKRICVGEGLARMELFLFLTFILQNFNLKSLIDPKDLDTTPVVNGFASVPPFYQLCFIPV

With CCN(C)C(=O)Oc1ccc(C(=O)N2CCC(Cc3ccccc3)CC2)cc1OC the inhibition (Mus musculus [1]) was “Active”, the inhibition (Mus musculus [2]) was “Active” and the IC50 (Cholinesterase) was 3.06 µM. It also gave an Activity [3] of 3.17 µM, an IC50 (Prothrombin) greater than 10 µM and a Papp B→A at 2 h, 50 µM [4] of 10.5 ×10⁻⁶ cm/s. The Activity [5] was 4.23 µM, the Activity [6] was “Non-toxic” and the Activity (Caco-2) was “Non-toxic”. For the same molecule, the IC50 [7] was greater than 10 µM, the Activity [8] was “Non-toxic” and the Stability [9] was “Stable”. For the same molecule, the efflux ratio at 2 h, 25 µM [10] was 0.64, the inhibition (Mus musculus [11]) was “Active” and the “inhibition (INH)” value (Cytochrome P450 2C19) was “Not_active”. The Activity [12] was “Non-toxic”, the Activity [13] was “Non-toxic” and the Papp A→B at 2 h, 50 µM [14] was 15.6 ×10⁻⁶ cm/s. The “inhibition (INH)” value (Cytochrome P450 2E1) was “Not_active”, the Drug uptake [15] was “Active” and the “inhibition (INH)” value (Cytochrome P450 1A2) was “Not_active”.
